# Results: patent US11338007B2, “Combination formulation of three antiviral compounds” (priority 2016, dated 2022)
# Test: Stress studies: stability of tablets made with stressed VEL SSD/VOX SSD (water, residual solvent, peroxide, reprocessing, potency; Tables 16-21)
# Assay type: physicochemical
# Conditions: for LS / Total Imp./Deg.: SSD water content study
# Method: The impact of the following stressors on the physical and chemical stability of the sofosbuvir/velpatasvir SSD/voxilaprevir SSD tablets were evaluated:
# (i) Voxilaprevir SSD and velpatasvir SSD, and sofosbuvir/velpatasvir SSD/voxilaprevir SSD tablet water content;
# (ii) Copovidone peroxide content in velpatasvir SSD and in voxilaprevir SSD (iii) Reprocessed velpatasvir SSD and voxilaprevir SSD;
# (iv) Voxilaprevir SSD and velpatasvir SSD potency (varying the ratio of velpatasvir or voxilaprevir to copovidone); and
# (v) Seeding sofosbuvir/velpatasvir SSD/voxilaprevir SSD tablets with crystalline voxilaprevir Form VIII and Form X drug substances.
# [1] = open (no desiccant), 40° C./75% RH, 4 weeks
# [2] = tablets from SSDs with copovidone peroxides 544 ppm (VEL SSD), 655 ppm (VOX SSD), Initial, time 0
# [3] = tablets from SSDs with copovidone peroxides 544 ppm (VEL SSD), 655 ppm (VOX SSD), closed, 1 g desiccant, 25° C./60% RH, 12 weeks
# [4] = tablets from SSDs with copovidone peroxides 544 ppm (VEL SSD), 655 ppm (VOX SSD), closed, 1 g desiccant, 40° C./75% RH, 4 weeks
# [5] = tablets from SSDs with copovidone peroxides 544 ppm (VEL SSD), 655 ppm (VOX SSD), closed, 1 g desiccant, 40° C./75% RH, 12 weeks
# [6] = tablets from SSDs with copovidone peroxides 544 ppm (VEL SSD), 655 ppm (VOX SSD), open, no desiccant, 40° C./75% RH, 4 weeks
# [7] = tablets from VEL SSD 6.0% residual ethanol, VOX SSD 2.1% residual acetone, Initial, time 0
# [8] = tablets from VEL SSD 6.0% residual ethanol, VOX SSD 2.1% residual acetone, closed, 1 g desiccant, 25° C./60% RH, 12 weeks
# [9] = tablets from VEL SSD 6.0% residual ethanol, VOX SSD 2.1% residual acetone, closed, 1 g desiccant, 40° C./75% RH, 4 weeks
# [10] = tablets from VEL SSD 6.0% residual ethanol, VOX SSD 2.1% residual acetone, closed, 1 g desiccant, 40° C./75% RH, 12 weeks
smiles,measurement,setting,value
"CC(C)OC(=O)C(C)N[P@](=O)(OC[C@H]1O[C@@H](n2ccc(=O)[nH]c2=O)[C@](C)(F)[C@@H]1O)Oc1ccccc1 (stereo in doubt) [sofosbuvir, (S)-isopropyl 2-(((S)-(((2R,3R,4R,5R)-5-(2,4-dioxo-3,4-dihydropyrimidin-1(2H)-yl)-4-fluoro-3-hydroxy-4-methyltetrahydrofuran-2-yl)methoxy)(phenoxy)phosphoryl)amino)propanoate]",total impurities/degradation products,"SSD potency study, tablet Lots A-D, all conditions",0.0%
same,LS,Initial,100.5%
same,Total Imp./Deg.,Initial,0.0%
same,LS,[1],101.2%
same,Total Imp./Deg.,[1],0.0%
same,LS (%),"tablets Lot A (super-potent VEL SSD, super-potent VOX SSD), Initial, time 0",100.1%
same,LS (%),"tablets Lot A (super-potent VEL SSD, super-potent VOX SSD), closed, 1 g desiccant, 25° C./60% RH, 12 weeks",99.0%
same,LS (%),"tablets Lot A (super-potent VEL SSD, super-potent VOX SSD), closed, 1 g desiccant, 40° C./75% RH, 4 weeks",99.9%
same,LS (%),"tablets Lot A (super-potent VEL SSD, super-potent VOX SSD), closed, 1 g desiccant, 40° C./75% RH, 12 weeks",99.8%
same,LS (%),"tablets Lot A (super-potent VEL SSD, super-potent VOX SSD), open, without cap, 40° C./75% RH, 4 weeks",100.3%
same,LS (%),"tablets Lot B (sub-potent VEL SSD, sub-potent VOX SSD), Initial, time 0",99.9%
same,LS (%),"tablets Lot B (sub-potent VEL SSD, sub-potent VOX SSD), closed, 1 g desiccant, 25° C./60% RH, 12 weeks",99.4%
same,LS (%),"tablets Lot B (sub-potent VEL SSD, sub-potent VOX SSD), closed, 1 g desiccant, 40° C./75% RH, 4 weeks",99.8%
same,LS (%),"tablets Lot B (sub-potent VEL SSD, sub-potent VOX SSD), closed, 1 g desiccant, 40° C./75% RH, 12 weeks",98.7%
same,LS (%),"tablets Lot B (sub-potent VEL SSD, sub-potent VOX SSD), open, without cap, 40° C./75% RH, 4 weeks",100.1%
same,LS (%),"tablets Lot C (sub-potent VEL SSD, super-potent VOX SSD), Initial, time 0",99.5%
same,LS (%),"tablets Lot C (sub-potent VEL SSD, super-potent VOX SSD), closed, 1 g desiccant, 25° C./60% RH, 12 weeks",99.6%
same,LS (%),"tablets Lot C (sub-potent VEL SSD, super-potent VOX SSD), closed, 1 g desiccant, 40° C./75% RH, 4 weeks",99.6%
same,LS (%),"tablets Lot C (sub-potent VEL SSD, super-potent VOX SSD), closed, 1 g desiccant, 40° C./75% RH, 12 weeks",99.1%
same,LS (%),"tablets Lot C (sub-potent VEL SSD, super-potent VOX SSD), open, without cap, 40° C./75% RH, 4 weeks",99.4%
same,LS (%),"tablets Lot D (super-potent VEL SSD, sub-potent VOX SSD), Initial, time 0",100.0%
same,LS (%),"tablets Lot D (super-potent VEL SSD, sub-potent VOX SSD), closed, 1 g desiccant, 25° C./60% RH, 12 weeks",99.5%
same,LS (%),"tablets Lot D (super-potent VEL SSD, sub-potent VOX SSD), closed, 1 g desiccant, 40° C./75% RH, 4 weeks",100.1%
same,LS (%),"tablets Lot D (super-potent VEL SSD, sub-potent VOX SSD), closed, 1 g desiccant, 40° C./75% RH, 12 weeks",98.9%
same,LS (%),"tablets Lot D (super-potent VEL SSD, sub-potent VOX SSD), open, without cap, 40° C./75% RH, 4 weeks",99.8%
same,total impurities/degradation products,tablets from SSDs with copovidone 544 ppm (VEL SSD) and 655 ppm (VOX SSD) peroxides,0.0%
same,LS (%),[2],100.0%
same,Total Imp./Deg. (%),[2],0.0%
same,LS (%),[3],99.3%
same,Total Imp./Deg. (%),[3],0.0%
same,LS (%),[4],99.3%
same,Total Imp./Deg. (%),[4],0.0%
same,LS (%),[5],98.9%
same,Total Imp./Deg. (%),[5],0.0%
same,LS (%),[6],100.3%
same,Total Imp./Deg. (%),[6],0.0%
same,total impurities/degradation products,"tablets from VEL SSD 6.0% residual ethanol and VOX SSD 2.1% residual acetone, all conditions",0.0%
same,LS (%),[7],101.2%
same,Total Imp./Deg. (%),[7],0.0%
same,LS (%),[8],100.5%
same,Total Imp./Deg. (%),[8],0.0%
same,LS (%),[9],101.5%
same,Total Imp./Deg. (%),[9],0.0%
same,LS (%),[10],100.9%
same,Total Imp./Deg. (%),[10],0.0%
